Tests used:
Assay in all cases: relative viability (nuclei count vs DMSO), 5 days (fraction); higher = more cells survive
[1] = compound: CN1C=C(C2=CC=CC=C21)/C=C\3/C4=C(C=CC=N4)NC3=O + CC(=O)c1c(C)c2cnc(Nc3ccc(N4CCNCC4)cn3)nc2n(C2CCCC2)c1=O [Palbociclib] (partner 0.5 µM)
Summary of the method: (§1)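 Dosing by pin tool came one day after lung cancer cell lines were seeded in 1536-well plates, using either one drug or a fixed anchor-drug dose plus five library-drug doses (not always all listed) in √10 steps. After 5 days, nuclei were counted on 4× images. Relative viability is treated-well nuclei count divided by vehicle-well nuclei count, and values are medians of duplicate plates.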

Trametinib + Vorinostat = compound: CC(=O)Nc1cccc(-n2c(=O)n(C3CC3)c(=O)c3c(Nc4ccc(I)cc4F)n(C)c(=O)c(C)c32)c1 [Trametinib] + O=C(CCCCCCC(=O)Nc1ccccc1)NO [Vorinostat] (partner 1 µM)
Summary of the method: as §1

Trametinib + Pictilisib = compound: CC(=O)Nc1cccc(-n2c(=O)n(C3CC3)c(=O)c3c(Nc4ccc(I)cc4F)n(C)c(=O)c(C)c32)c1 [Trametinib] + CS(=O)(=O)N1CCN(Cc2cc3nc(-c4cccc5[nH]ncc45)nc(N4CCOCC4)c3s2)CC1 [Pictilisib] (partner 1 µM)
Summary of the method: as §1

[2] = compound: CN1C=C(C2=CC=CC=C21)/C=C\3/C4=C(C=CC=N4)NC3=O + C[C@]1(O)C[C@@H](c2nc(-c3ccc4ccc(-c5ccccc5)nc4c3)c3c(N)nccn32)C1 [Linsitinib] (partner 1 µM)
Summary of the method: as §1

Cell Line | relative viability ([1]; first compound 0.02 µM) | relative viability ([1]; first compound 0.6325 µM) | relative viability ([1]; first compound 2 µM) | relative viability (Trametinib + Vorinostat; first compound 0.0025 µM) | relative viability (Trametinib + Vorinostat; first compound 0.007906 µM) | relative viability (Trametinib + Vorinostat; first compound 0.025 µM) | relative viability (Trametinib + Vorinostat; first compound 0.07906 µM) | relative viability (Trametinib + Vorinostat; first compound 0.25 µM) | relative viability (Trametinib + Pictilisib; first compound 0.0025 µM) | relative viability (Trametinib + Pictilisib; first compound 0.007906 µM) | relative viability (Trametinib + Pictilisib; first compound 0.025 µM) | relative viability (Trametinib + Pictilisib; first compound 0.07906 µM) | relative viability (Trametinib + Pictilisib; first compound 0.25 µM) | relative viability ([2]; first compound 0.02 µM) | relative viability ([2]; first compound 0.06325 µM) | relative viability ([2]; first compound 0.2 µM) | relative viability ([2]; first compound 0.6325 µM) | relative viability ([2]; first compound 2 µM) | relative viability ([1]; first compound 0.06325 µM) | relative viability ([1]; first compound 0.2 µM)
SW 900 | 0.428 | 0.542 | 0.563 | 0.44 | 0.545 | 0.439 | 0.456 | 0.138 | – | – | – | – | – | – | – | – | – | – | – | –
EBC-1 | – | – | – | – | – | – | – | – | 0.244 | 0.204 | 0.134 | 0.137 | 0.168 | 1.03 | 0.873 | 0.723 | 0.922 | 0.971 | – | –
NCI-H1703 | – | – | – | – | – | – | – | – | 0.23 | 0.224 | 0.206 | 0.269 | 0.258 | 0.489 | 0.848 | 0.581 | 0.94 | 1.02 | – | –
NCI-H1563 | – | – | – | – | – | – | – | – | 0.624 | 0.72 | 0.652 | 0.572 | 0.536 | 1.24 | 1.17 | 1.11 | 1.17 | 1.26 | – | –
NCI-H1299 | – | – | – | – | – | – | – | – | 0.475 | 0.47 | 0.32 | 0.0746 | 0.157 | 1.07 | 1.03 | 1.06 | 1.06 | 1.05 | – | –
NCI-H596 | – | – | – | 0.6 | 0.555 | 0.436 | 0.427 | 0.263 | 0.367 | 0.316 | 0.338 | 0.314 | 0.33 | 0.976 | 1.08 | 0.934 | 0.935 | 1.05 | – | –
NCI-H2170 | 0.293 | 0.392 | 0.434 | 0.821 | 0.723 | – | 0.73 | 0.803 | 0.281 | 0.276 | – | 0.238 | 0.249 | – | – | – | – | – | 0.408 | 0.349
A549 | – | – | – | – | – | – | – | – | 0.375 | 0.237 | 0.179 | 0.121 | 0.072 | 0.596 | 0.512 | – | 0.543 | 0.586 | – | –
NCI-H522 | 1.04 | 0.874 | 1.06 | 0.823 | 0.798 | 0.836 | 0.763 | 0.671 | – | – | – | – | – | – | – | – | – | – | 1.01 | 1.08
NCI-H1650 | 0.299 | 0.299 | 0.353 | 0.502 | 0.625 | 0.572 | 0.45 | 0.288 | 0.608 | 0.61 | 0.448 | 0.364 | 0.113 | – | – | – | – | – | 0.274 | 0.267
NCI-H1648 | 0.308 | 0.285 | 0.28 | 0.422 | 0.479 | 0.488 | 0.3 | 0.376 | – | – | – | – | – | – | – | – | – | – | 0.305 | 0.233
NCI-H2342 | 0.552 | 0.537 | 0.485 | 0.727 | 0.793 | 0.488 | 0.685 | 0.68 | – | – | – | – | – | – | – | – | – | – | 0.557 | 0.519
Calu-6 | – | – | – | – | – | – | – | – | 0.739 | 0.45 | 0.193 | 0.136 | 0.121 | 0.926 | 0.903 | 0.919 | 0.975 | 0.915 | – | –

Source: the supplement of paper PMC10307832
